Measurements taken from patent US10710986B2, “PD-1/PD-L1 inhibitors” (Gilead Sciences, Inc., priority 2018, dated 2020).

These molecules were tested against PD-1/PD-L1 (Homo sapiens (Human), UniProt Q9NZQ7) (assay: PD-1/PD-L1 biochemical protein-protein interaction assay (ALPHA)). Conditions: 0.3 nM His tagged PD-L1, 2.5 nM biotinylated Fc-PD-1, 60 minutes at 25° C., read-out: IC50 PD-L1-PD1.
PD-1/PD-L1, sequence (Q9NZQ7 19-238): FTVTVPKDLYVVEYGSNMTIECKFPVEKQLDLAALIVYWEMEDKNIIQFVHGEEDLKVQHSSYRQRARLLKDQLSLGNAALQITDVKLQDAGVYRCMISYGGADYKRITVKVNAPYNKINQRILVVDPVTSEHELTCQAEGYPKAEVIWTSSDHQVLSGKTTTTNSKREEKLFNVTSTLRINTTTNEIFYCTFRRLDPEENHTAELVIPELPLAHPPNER
Work on `COc1nc(-c2cccc(-c3cccc(-c4cnc(CN5CCC(c6cn[nH]c6)C5)c(OC)n4)c3Cl)c2Cl)cnc1CNC[C@@H]1CCC(=O)N1` (stereo partly shown) [compound 441] yielded an IC50 of 0.064 nM. `COc1nc(-c2cccc(-c3cccc(-c4cnc(CN[C@H]5CCNC5=O)c(OC)n4)c3Cl)c2Cl)cnc1CNC[C@@H]1CCC(=O)N1` [compound 39] was tested, and the IC50 was 0.39 nM. Molecule `COc1nc(-c2cccc(-c3cccc(-c4cnc(CN[C@@H]5CCO[C@@H]5C)c(OC)n4)c3Cl)c2Cl)cnc1CNC[C@@H]1CCC(=O)N1` [compound 295] has an IC50 of 0.414 nM. With `Cc1nc(-c2cccc(-c3cccc(-c4cnc(CN5CC(O)C5)c(C)n4)c3Cl)c2Cl)cnc1CN1CC(O)C1` [compound 93] the IC50 was 0.566 nM. Work on `COc1nc(-c2cccc(-c3cccc(-c4cnc(CN5CCCC5C(C)(C)O)c(OC)n4)c3Cl)c2Cl)cnc1CNC[C@@H]1CCC(=O)N1` (stereo partly shown) [compound 483] yielded an IC50 of 0.341 nM. With `COc1nc(-c2cccc(-c3cccc(-c4cnc(CN5CC[C@@H](O)[C@H](F)C5)c(OC)n4)c3Cl)c2Cl)cnc1CNC[C@@H]1CCC(=O)N1` [compound 279] the IC50 was 0.343 nM. Molecule `COc1nc(-c2cccc(-c3cccc(-c4cnc(CN[C@H]5C[C@@H](OC(F)F)C5)c(OC)n4)c3Cl)c2Cl)cnc1CNC[C@@H]1CCC(=O)N1` [compound 536] has an IC50 of 0.276 nM. `O=C1CC[C@@H](CNCc2ncc(-c3cccc(-c4cccc(-c5cnc(CNC[C@@H]6CCC(=O)N6)c(Cl)n5)c4Cl)c3Cl)nc2Cl)N1` [compound 111] gave an IC50 of 0.297 nM. For `COc1nc(-c2cccc(-c3cccc(-c4cnc(CN5CC(NS(C)(=O)=O)C5)c(OC)n4)c3Cl)c2Cl)cnc1CNC[C@@H]1CCC(=O)N1` [compound 559], the IC50 was 0.12 nM. Work on `COCCC1CN(Cc2ncc(-c3cccc(-c4cccc(-c5cnc(CNC[C@@H]6CCC(=O)N6)c(OC)n5)c4Cl)c3Cl)nc2OC)C1` [compound 225] yielded an IC50 of 0.288 nM. `CCc1nc(-c2cccc(-c3cccc(-c4cnc(CNC[C@@H]5CCC(=O)N5)c(CC)n4)c3Cl)c2Cl)cnc1CNC[C@@H]1CCC(=O)N1` [compound 85] showed an IC50 of 0.976 nM. In the case of `C#CC1(O)CN(Cc2ncc(-c3cccc(-c4cccc(-c5cnc(CNC[C@@H]6CCC(=O)N6)c(OC)n5)c4Cl)c3Cl)nc2OC)C1` [compound 551], the IC50 is reported as 0.464 nM. `COc1nc(-c2cccc(-c3cccc(-c4cnc(CNC[C@@H]5CCC(=O)N5)c(OC)n4)c3Cl)c2Cl)cnc1CNCC1OCCO1` [compound 433] was tested, and the IC50 was 0.259 nM. Molecule `CCNc1nc(-c2cccc(-c3cccc(-c4cnc(CN5CC6(CNC(=O)C6)C5)c(NCC)n4)c3Cl)c2Cl)cnc1CN1CC2(CNC(=O)C2)C1` [compound 67] has an IC50 of 0.292 nM. Molecule `COc1nc(-c2cccc(-c3cccc(-c4cnc(CN(C)C[C@@H]5CCC(=O)N5)c(OC)n4)c3Cl)c2Cl)cnc1CN(C)C[C@@H]1CCC(=O)N1` [compound 327] has an IC50 of 0.238 nM. `COc1nc(-c2cccc(-c3cccc(-c4cnc(CN5C[C@@H](CO)[C@H](C)C5)c(OC)n4)c3Cl)c2Cl)cnc1CN1C[C@@H](CO)[C@H](C)C1` [compound 533] showed an IC50 of 0.096 nM. `COc1nc(-c2cccc(-c3cccc(-c4cnc(CN5CC[C@H](C(C)(C)O)C5)c(OC)n4)c3Cl)c2Cl)cnc1CN1CC[C@H](C(C)(C)O)C1` [compound 500] gave an IC50 of 0.232 nM. `COc1nc(-c2cccc(-c3cccc(-c4cnc(C5=NCCN5)c(OC)n4)c3Cl)c2Cl)cnc1CN` [compound 584] gave an IC50 of 0.118 nM. `COc1nc(-c2cccc(-c3cccc(-c4cnc(CNC[C@@H]5CCC(=O)N5)c(OC)n4)c3Cl)c2Cl)ccc1CN[C@H]1CCNC1=O` [compound 169] gave an IC50 of 0.344 nM. `COc1nc(-c2cccc(-c3cccc(-c4cnc(CN5CC(F)(CO)C5)c(OC)n4)c3Cl)c2Cl)cnc1CN1CC(F)(CO)C1` [compound 239] showed an IC50 of 0.3 nM. In the case of `COc1nc(-c2cccc(-c3cccc(-c4cnc(CNC[C@@H]5CCC(=O)N5)c(OC)n4)c3Cl)c2F)cnc1CNC[C@@H]1CCC(=O)N1` [compound 6], the IC50 is reported as 0.099 nM. With `CCn1nc(CN2CC3(C2)CN(C(C)=O)C3)c2ncc(-c3cccc(-c4cccc(-c5cnc(CN6CC7(C6)CN(C(C)=O)C7)c(OC)n5)c4Cl)c3Cl)nc21` [compound 490] the IC50 was 0.565 nM. `COc1nc(-c2cccc(-c3cccc(-c4cnc(CN5CC[C@@H](CNC(C)=O)C5)c(OC)n4)c3Cl)c2Cl)cnc1CN1CC[C@@H](CNC(C)=O)C1` [compound 663] showed an IC50 of 0.281 nM. `COc1nc(-c2cccc(-c3cccc(-c4cnc(C5=NC[C@H](CO)N5)c(OC)n4)c3Cl)c2Cl)cnc1C1=NC[C@H](CO)N1` [compound 133] gave an IC50 of 0.064 nM. `COc1nc(-c2cccc(-c3cccc(-c4cnc(CNC[C@@H]5CCC(=O)N5)c(OC)n4)c3Cl)c2Cl)cnc1CNCCS(N)(=O)=O` [compound 43] was tested, and the IC50 was 0.083 nM. In the case of `COc1nc(-c2cccc(-c3cccc(-c4cnc(CNC5CCN(C(N)=O)CC5)c(OC)n4)c3Cl)c2Cl)cnc1CNC[C@@H]1CCC(=O)N1` [compound 470], the IC50 is reported as 0.094 nM. Work on `OC1CN(Cc2cnc(-c3cccc(-c4cccc(-c5cnc(CN6CC(O)C6)cn5)c4Cl)c3Cl)cn2)C1` [compound 81] yielded an IC50 of 4.18 nM. Work on `COc1nc(-c2cccc(-c3cccc(-c4cnc(CNC[C@@H]5CCC(=O)N5)c(OC)n4)c3Cl)c2Cl)cnc1CNCC(O)C(F)(F)F` (stereo partly shown) [compound 47] yielded an IC50 of 0.16 nM. `CNc1nc(-c2cccc(-c3cccc(-c4cnc(CN5CCC5)c(NC)n4)c3Cl)c2Cl)cnc1CN1CCC1` [compound 72] gave an IC50 of 0.198 nM. Work on `COc1nc(-c2cccc(-c3cccc(-c4ccc(CN5CC(C)(CO)C5)c(C#N)c4)c3Cl)c2Cl)cnc1CNC[C@@H]1CCC(=O)N1` [compound 154] yielded an IC50 of 0.126 nM. In the case of `COc1nc(-c2cccc(-c3cccc(-c4cnc(CNC[C@@H]5CCC(=O)N5)c(OC)n4)c3Cl)c2Cl)cnc1CNCC1CC1` [compound 179], the IC50 is reported as 0.211 nM. In the case of `COc1nc(-c2cccc(-c3cccc(-c4cnc(CN5CC6(CNC(=O)C6)C5)c(OC)n4)c3Cl)c2Cl)cnc1CNC[C@@H]1CCC(=O)N1` [compound 368], the IC50 is reported as 0.064 nM. Molecule `COc1nc(-c2cccc(-c3cccc(-c4cnc(CN[C@H]5C[C@@H](C(N)=O)C5)c(OC)n4)c3Cl)c2Cl)ccc1CNC[C@@H]1CNC(=O)C1` [compound 639] has an IC50 of 0.066 nM. With `COc1nc(-c2cccc(-c3cccc(-c4cnc(CNC[C@@H]5CCC(=O)N5)c(OC)n4)c3Cl)c2Cl)cnc1CNCc1ccn(C)n1` [compound 27] the IC50 was 0.09 nM. `COc1nc(-c2cccc(-c3cccc(-c4cnc5c(CN6CCC7(CCC(=O)N7)C6)cn(C)c5n4)c3Cl)c2Cl)cnc1CNC[C@H]1CCC(=O)N1` (stereo partly shown) [compound 602] showed an IC50 of 0.145 nM. Molecule `COc1nc(-c2cccc(-c3cccc(-c4cnc(CNC5CC6(C5)CS(=O)(=O)C6)c(OC)n4)c3Cl)c2Cl)cnc1CNC[C@@H]1CCC(=O)N1` [compound 363] has an IC50 of 0.424 nM. With `COc1nc(-c2cccc(-c3cccc(-c4cnc(CNC[C@@H]5CCC(=O)N5)c(OC)n4)c3Br)c2F)cnc1CNC[C@@H]1CCC(=O)N1` [compound 396] the IC50 was 2.02 nM. `COc1nc(-c2cccc(-c3cccc(-c4cnc(CN5C[C@@H](O)C[C@@H](F)C5)c(OC)n4)c3Cl)c2Cl)cnc1CNC[C@@H]1CCC(=O)N1` [compound 263] was tested, and the IC50 was 0.379 nM. With `COc1nc(-c2cccc(-c3cccc(-c4cnc(CNCC5(C)COC(=O)N5)c(OC)n4)c3Cl)c2Cl)cnc1CNC[C@@H]1CCC(=O)N1` (stereo partly shown) [compound 210] the IC50 was 0.3 nM. In the case of `COc1nc(-c2cccc(-c3cccc(-c4cnc(C5=NC[C@@H](CO)N5)c(OC)n4)c3Cl)c2Cl)cnc1C1=NC[C@@H](CO)N1` [compound 134], the IC50 is reported as 0.064 nM. `CCn1cc(CN2CC3(CNC(=O)C3)C2)c2ncc(-c3cccc(-c4cccc(-c5cnc(CN6CC7(CNC(=O)C7)C6)c(OC)n5)c4Cl)c3Cl)nc21` [compound 609] showed an IC50 of 0.079 nM. For `COc1nc(-c2cccc(-c3cccc(-c4cnc(CN5CC(OC)C5)c(OC)n4)c3Cl)c2Cl)ccc1CN1CC(OC)C1` [compound 438, 5-(2,2′-dichloro-3′-(6-methoxy-5-((3-methoxyazetidin-1-yl)methyl)pyridin-2-yl)-[1,1′-biphenyl]-3-yl)-3-methoxy-2-((3-methoxyazetidin-1-yl)methyl)pyrazine], the IC50 was 1.34 nM. `COc1nc(-c2cccc(-c3cccc(-c4cnc(CN[C@H]5CC[C@@H](CO)C5)c(OC)n4)c3Cl)c2Cl)cnc1CNC[C@@H]1CCC(=O)N1` [compound 648] was tested, and the IC50 was 0.08 nM. In the case of `COc1nc(-c2cccc(-c3cccc(-c4cnc(CN5CC(O)(CO)C5)c(OC)n4)c3Cl)c2Cl)cnc1CN1CC(O)(CO)C1` [compound 240], the IC50 is reported as 0.09 nM. `COc1nc(-c2cccc(-c3cccc(-c4cnc5c(CN6CC7(C6)CN(C(C)=O)C7)cn(C)c5c4)c3Cl)c2Cl)cnc1CN1CC2(C1)CN(C(C)=O)C2` [compound 451] showed an IC50 of 0.101 nM. For `COc1nc(-c2cccc(-c3cccc(-c4cnc(CNC[C@@H]5CCS(=O)(=O)N5)c(OC)n4)c3Cl)c2Cl)cnc1CNC[C@@H]1CCS(=O)(=O)N1` [compound 569], the IC50 was 0.59 nM. For `COc1nc(-c2cccc(-c3cccc(-c4cnc(CN[C@@H]5COCC[C@H]5O)c(OC)n4)c3Cl)c2Cl)cnc1CNC[C@@H]1CCC(=O)N1` [compound 339], the IC50 was 0.192 nM. With `COc1nc(-c2cccc(-c3cccc(-c4cnc(CNC[C@@H]5CCC(=O)N5)c(OC)n4)c3Cl)c2Cl)cnc1CNCc1nc[nH]n1` [compound 28] the IC50 was 0.436 nM. `COc1nc(-c2cccc(-c3cccc(-c4cnc(CNC[C@H]5C[C@@](C)(O)C5)c(OC)n4)c3Cl)c2Cl)cnc1CNC[C@H]1C[C@@](C)(O)C1` [compound 562] showed an IC50 of 0.151 nM. `COc1nc(-c2cccc(-c3cccc(-c4cnc(CNCc5nc(C)n[nH]5)c(OC)n4)c3Cl)c2Cl)cnc1CNCc1nc(C)n[nH]1` [compound 29] gave an IC50 of 1.09 nM. With `COc1nc(-c2cccc(-c3cccc(-c4cnc(CNC[C@H]5C[C@@H](O)C5)c(OC)n4)c3Cl)c2Cl)cnc1CNC[C@H]1C[C@@H](O)C1` [compound 243] the IC50 was 0.11 nM. `COC[C@@H]1CC[C@H]1NCc1ncc(-c2cccc(-c3cccc(-c4cnc(CNC[C@@H]5CCC(=O)N5)c(OC)n4)c3Cl)c2Cl)nc1OC` [compound 215] showed an IC50 of 0.11 nM. In the case of `COc1nc(-c2cccc(-c3cccc(-c4cnc(CNC[C@@H]5CCC(=O)N5)c(OC)n4)c3Cl)c2Cl)cnc1CNCc1cccnc1` [compound 425], the IC50 is reported as 0.414 nM. Work on `COc1nc(-c2cccc(-c3cccc(-c4cnc(CNC[C@@H]5CCC(=O)N5)c(OC)n4)c3Cl)c2Cl)ccc1CN[C@H]1CNC(=O)C1` [compound 166] yielded an IC50 of 0.233 nM. `COc1nc(-c2cccc(-c3cccc(-c4cnc(CNC[C@H](C)O)c(OC)n4)c3Cl)c2Cl)cnc1CNC[C@@H]1CCC(=O)N1` [compound 344] gave an IC50 of 0.114 nM.
